Patent US12485117B2, “Compositions and methods for activating signaling through the CB1 cannabinoid receptor for treating and preventing diseases and disorders characterized by abnormal cellular accumulation of sphingolipids such as sphingomyelin” (Wylder Nation Foundation, priority 2018, dated 2025)

Columns and labels:
wt and ASMko mice [1] = assay: Weekly body weight during 8-week oral treatment; format: in vivo, mouse; conditions: 0.3 mg/kg oral gavage every three days, 8 weeks
Experimental: We divided wt and ASMko into four groups: wt, wt+FAAHi, ASMko, ASMko+FAAHi. Each group included 14 animals with females and males in equal proportions.
(§1) Treatment started at 7 weeks of age and continued for 8 weeks. PF-04457845 was dissolved in 0.9% NaCl and delivered through oral gavage at a dose of 0.3 mg/kg every three days. We chose this dose based on the studies published by Ahn et al., (J Pharm Exp Ther 2011). Control groups received same volume of 0.9% NaCl without PF-04457845.
Behavioral analyses were performed in the last 2 weeks of treatment while still administering the drug. Then, half of the mice were sacrificed for biochemical and histological analysis and the other half continued receiving the treatment to monitor life span.

wt and ASMko mice [2] = assay: Acute toxicity: H&E staining of brain and liver; format: in vivo, mouse; conditions: any of the doses
Experimental: FIGS. 27A-27C show H&E staining in wt and ASMko mice treated or not treated with PF-04457845.
(§2) We divided wt and ASMko mice of 4.5 months of age in six experimental groups: ASMko control (n=3), ASMko low dose (n=3), ASMko intermediate dose (n=3), ASMko high dose (n=3), wt control (n=3), wt high dose (n=3). PF-04457845, provided as powder, was dissolved in 0.9% NaCl and administered to mice through oral gavage. Vehicle groups received same volume of 0.9% NaCl.
Brain and liver tissue was stained with H&E to evaluate histopathological features.
In the liver foam cells showing white vacuoles indicative of lipid accumulation were evident in vehicle treated ASMko mice compared to wt (FIG. 28).

[3] = cited from earlier work
[4] = cited from earlier work; remark: listed apart in the source
microglia [5] = assay: Acute toxicity: brain inflammation by iba-1 immunofluorescence (microglia numbers); format: in vivo, mouse; conditions: ASMko mice
Description: FIGS. 29A-29C show representative images of immunofluorescence against ibal, a marker for microglia, which is used as a readout for inflammation. FIGS. 29A-29C show ibal expression in hippocampus (FIG. 29A), cerebellum (FIG. 29B), and cortex (FIG. 29C), respectively, of wt and ASMko mice treated with PF-04457845 at the indicated doses or with vehicle.
as §2
Inflammation was analyzed in different brain areas (hippocampus, cerebellum and cortex) by immunofluorescence against the microglia marker iba-1. Under inflammatory conditions the number of microglia increases. Confirming high inflammation in the brain of vehicle-treated ASMko mice, microglia numbers increased compared to wt mice in all areas (FIGS. 29A-29C).

microglia [6] = assay: Microglia number and morphology by iba-1 immunofluorescence after 8-week treatment; format: in vivo, mouse; conditions: 0.3 mg/kg every three days
Experimental: Representative images of microglia stained for iba-1 (green) in the cerebellum, hippocampus and cortex of wt and ASMko mice treated or not with PF-04457845. […] Graphs show mean±SEM microglia number and cell body area (n=7, **p<0.01, *p<0.05).
as §1
Brain inflammation was determined by analysis of glial cells in the cerebellum, hippocampus and cortex. The number and morphology of microglia was analyzed by immunofluorescence staining with the marker iba-1 (FIG. 16). […] PF-04457845 treatment had no effect in microglia of wt mice. The amount of astrocytes was analyzed by immunofluorescence with the marker GFAP (FIG. 17). […] PF-04457845 treatment had no effect in astrocytes of wt mice (FIG. 17).

[7] = tested on: cultured primary hippocampal neurons from ASMko mice; assay: Sphingomyelin levels by enzymatic assay in cultured primary hippocampal neurons from ASMko mice; format: cell-based, mouse
Description: FIGS. 5A-5D show sphingomyelin and endocannabinoid levels in cultured primary hippocampal neurons and hippocampal tissue, respectively, from ASMko and wildtype mice.
Statistical significance Student's t-test, *P<0.05, **P<0.005, n=3 independent cultures.
Statistical significance Student's t-test, **P<0.005, n=3 independent cultures.
Anandamide (AEA) is the major endogenous CB1 ligand. We therefore tested whether increased levels of anandamide affected sphingomyelin levels in cultured primary hippocampal neurons from ASMko mice. Anandamide was increased in two ways: • 1. By incubating the neuronal cultures with exogenous anandamide; and • 2. By incubating the neuronal cultures with PF-04457845, which is an inhibitor of the anandamide hydrolytic enzyme FAAH. Inhibition of FAAH causes accumulation of anandamide by inhibiting FAAH-mediated hydrolyzation of anandamide.
The following experiments were performed in three independent cultures of hippocampal neurons derived from ASMko mice. Treatments were done at 11-13 days in vitro when these cells are considered mature and functional.
To set the optimal conditions for such hydrolysis in terms of concentration and time of incubation, anandamide was added to the culture medium of mature ASMko hippocampal neurons at 0, 5, 25, 50 and 100 μM for 30 minutes or 1 hour. […] The optimal conditions for SM degradation were in a range of concentration of 25-50 μM for 1 hour. […] We therefore decided to use 25 μM anandamide for 1-hour incubation time in our next experiments.
Similar to the anandamide dose/time response experiment above, we performed another dose response experiment using URB597 (URB), an inhibitor of the anandamide-hydrolyzing enzyme FAAH, to be used as reference for the other FAAH inhibitors. The experiments were done in the presence or absence of exogenous anandamide. URB was added to the culture medium of ASMko mature neurons at 0, 5, 25 and 50 μM for 1 hour with or without □□ μM anandamide.
We next compared URB efficacy to reduce SM levels with that of other FAAH inhibitors PF-04457845 (PF) and JNJ-1661010 (JNJ).

wt and ASMko mice [8] = assay: Tail Suspension Test; format: in vivo, mouse; conditions: 0.3 mg/kg every three days
Experimental: FIGS. 13A-13C show the effect of PF-04457845 treatment on various behavioral functions. […] (n=14; **p<0.01, *p<0.05).
as §1
Mood alterations were monitored by the Tail Suspension Test (FIG. 13B) and by the Elevated Plus Maze test (FIG. 13C) that give an idea of depressive state and anxiety, respectively. […] PF-04457845 treatment had no effect in the behavior of wt mice.

O=C(Nc1cccnn1)N1CCC(=Cc2cccc(Oc3ccc(C(F)(F)F)cn3)c2)CC1 [PF-04457845]
body weight gain (wt and ASMko mice [1]; ASMko mice): significantly improved | body weight gain (wt and ASMko mice [1]; wt mice): not affected | H&E staining of liver (foam cell pattern) (wt and ASMko mice [2]; ASMko mice): did not significantly alter this pattern | H&E staining of hippocampus, cerebellum and cortex (wt and ASMko mice [2]; wt and ASMko mice): did not cause significant changes in H&E staining | tolerability of much higher doses in healthy humans ([3]; Li et al., 2011): well tolerated | safety in healthy humans ([3]; Ling et al., BJCP 2011): safety in healthy humans has been already demonstrated | dose sufficient, well tolerated and providing maximal effects on FAAH activity and fatty acid amide elevation ([3]; once daily, healthy humans, Li et al., Br J Clin Pharmacol 2011): 0.5 mg | doses that seem to be safe in rodents ([4]; Ahn et al., 2011): up to 10 mg/kg | selectivity ([4]; Ahn et al., J Pharm Exp Ther 2011): exceptional selectivity | duration of action in vivo ([4]; rodents, Ahn et al. 2011): long duration of action | pharmacokinetic properties ([4]; rodents, Ahn et al. 2011): optimal pharmacokinetic properties | microglia numbers in hippocampus, cerebellum and cortex (microglia [5]; single dose 0.1 mg/kg): did not significantly alter microglia numbers | microglia numbers in hippocampus, cerebellum and cortex (microglia [5]; single dose 1 mg/kg): remarkably reduced microglia numbers to levels similar to wt mice | microglia numbers in hippocampus, cerebellum and cortex (microglia [5]; single dose 5 mg/kg): remarkably reduced microglia numbers to levels similar to wt mice | microglia amoeboid morphology in the hippocampus and cerebellum (microglia [6]; ASMko mice): normalized to a significant extent | microglia morphology in cerebellum (iba-1) (microglia [6]; ASMko mice): normalized their morphology | microglia number in cerebellum (iba-1) (microglia [6]; ASMko mice): reduced microglia number | microglia (microglia [6]; wt mice): no effect | SM hydrolysis ([7]; 50 μM and 1 hour (FIG. 8)): promoted SM hydrolysis | sphingomyelin levels ([7]; ASMko neurons, 1 hour incubation (FIG. 5A)): reduced sphingomyelin levels | behavior in Tail Suspension Test (depressive state) (wt and ASMko mice [8]; ASMko mice): normalized | behavior in Tail Suspension Test (wt and ASMko mice [8]; wt mice): no effect
